# From the supplement of paper PMC3974653
# Structures can show the parent of a compound that is named as a salt.
# System: MTT (mouse pheochromocytoma)
# Assay: IC50 of cell viability (ATP content)
# Settings: (24 or 48 h)
# Outline: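 MTT mouse pheochromocytoma cells were seeded into white 1536-well plates at 5 µl per well from a 200,000 cells/ml suspension in DMEM with 5% FBS and 1% horse serum, then cultured overnight at 37°C, 5% CO2. A pintool added 23 nl of library compound in DMSO at 8 concentrations (final 0.5 nM to 46 µM) for 24 or 48 hrs, and CellTiter-Glo ATP luminescence was read after 15 minutes. Signals were scaled so that positive-control wells equalled 100% and DMSO wells 0%. IC50 values were derived by fitting a four-parameter logistic curve.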
row,SMILES,IC50 of cell viability
1,CCN(CC)C(=O)[C@H]\1CN(C)[C@@H]\2CC3=C[NH]C4=C3C(=CC=C4)C2=C1 [Lysergic acid diethylamide],> 46 µM
2,NCCCCC(N)C(=O)O (stereo not given) [Lysine],> 46 µM
3,CC(C)(C)NCC(O)c1cc(Cl)c(N)c(C(F)(F)F)c1 (stereo not given) [MABUTEROL HYDROCHLORIDE],> 46 µM
4,O=C1[O][Mg]2([O]C(=O)c3ccccc3[O]2)[O]c2ccccc21 [MAGNESIUM SALICYLATE],> 46 µM
5,CCOC(=O)CC(SP(=S)(OC)OC)C(=O)OCC (stereo not given) [MALATHION],> 46 µM
6,O=C(O)/C=C/C(=O)O [MALEIC ACID],> 46 µM
7,O=C(O)CC(O)C(=O)O.[NaH] (stereo not given) [MALIC ACID],> 46 µM
8,CNCCCC12CCC(c3ccccc31)c1ccccc12 [MAPROTILINE],> 46 µM
9,Cc1cc(C)c(NC(=O)CN(CC(=O)O)CC(=O)O)c(C)c1Br [MEBROFENIN],> 46 µM
10,CNC1(C)C2CCC(C2)C1(C)C (stereo not given) [MECAMYLAMINE],> 46 µM
11,CNC(=O)NC(O)C(Cl)(Cl)Cl (stereo not given) [MECLORALUREA],> 46 µM
12,O=P(O)(O)CP(=O)(O)O [MEDRONIC ACID],> 46 µM
13,CC1CC2C(CC[C@]3(C)C2CC[C@@]3(OC(C)=O)C(C)=O)[C@]\4(C)CCC(=O)\C=C14 (stereo not given in full) [MEDROXYPROGESTERONE ACETATE],> 46 µM
14,CCN(CC)CCNC(=O)COc1ccc(OC)cc1.Cl [MEFEXAMIDE],> 46 µM
15,CN(CC1(C)CCCO1)[S+](=O)([O-])c1ccc(Cl)c([S+](N)(=O)[O-])c1 (stereo not given) [MEFRUSIDE],> 46 µM
16,COc1ccc2[nH]cc(CCNC(C)=O)c2c1 [MELATONIN],> 46 µM
17,CCCCC/C=C/C/C=C/CCCCCCCC(=O)NC(C)c1ccccc1 (stereo not given) [MELINAMIDE],> 46 µM
18,CN1\C(=C(\O)C2=CC=CC=C2[S+]1([O-])=O)C(=O)NC3=NC=C(C)S3 [MELOXICAM],> 46 µM
19,CC1CCN(CCCC(=O)c2ccc(F)cc2)CC1 [MELPERONUM],> 46 µM
20,CC(C)(C)NC[C@H](O)c1ccc(O)cc1Cl [MELUADRINE TARTRATE],> 46 µM
21,CC12CC3CC(C)(C1)CC(N)(C3)C2 [MEMANTINE],> 46 µM
22,C\C1=C\C(=O)C2=C(C=CC=C2)C1=O [MENADIONE],> 46 µM
23,CC1CCC(C(C)C)C(O)C1 (stereo not given) [MENTHOL],> 46 µM
24,CC1CCC(C(C)C)C(=O)C1 (stereo not given) [MENTHONE],> 46 µM
25,CC1CCC(C(C)C)C(OC(=O)c2ccccc2O)C1 (stereo not given) [MENTHYL SALICYLATE],> 46 µM

row,SMILES,IC50 of cell viability
1,CNc1ccc(C(=O)CC(O)CCC(C)C2OC(=O)CC(O)CC(=O)CC(O)CC(O)CC(O)CC(O)CC3(O)CC(O)C(C(=O)OC)C(CC(O[C@@H]4OC(C)C(O)C(N)C4O)/C=C/C=C/C=C/C=C/C=C/C=C/C=C/C2C)O3)cc1 (stereo not given in full) [MEPARTRICIN],> 46 µM
2,Cc1ccccc1OCC(O)CO (stereo not given) [MEPHENESIN],> 46 µM
3,CC[C@@]1(c2ccccc2)NC(=O)N(C)C1=O [MEPHENYTOIN],> 46 µM
4,Cc1cccc(C)c1NC(=O)C1CCCCN1C.Cl (stereo not given) [MEPIVACAINE HYDROCHLORIDE],> 46 µM
5,COc1ccc(CN(CCN(C)C)c2ccccn2)cc1 [MEPYRAMINE],> 46 µM
6,COc1ccc(O)cc1 [MEQUINOL],> 46 µM
7,O=[S+]([O-])(O)CCS [MESNA],> 46 µM
8,CN1CCCCC1CCN1c2ccccc2Sc2ccc(S(C)=O)cc21 (stereo not given) [MESORIDAZINE],> 46 µM
9,C#C[C@]1(O)CC[C@H]2[C@@H]3CCc4cc(OC)ccc4[C@H]3CC[C@@]21C [MESTRANOL],> 46 µM
10,CN1C[C@@H](NS(=O)(=O)N(C)C)C[C@@H]2c3cccc4c3c(cn4C)C[C@H]21 [MESULERGINE],> 46 µM
11,CC(=O)Nc1cccc(O)c1 [METACETAMOL],> 46 µM
12,C=NC(C(=O)NC1C(=O)N2C1SC(C)(C)C2C(=O)[O-])c1ccccc1.[Na+] (stereo not given) [METAMPICILLIN SODIUM],> 46 µM
13,Cc1cc(C)cc(OCC2CNC(=O)O2)c1 (stereo not given) [METAXALONE],> 46 µM
14,CCCCCCC(=O)O[C@H]1CC[C@H]2[C@@H]3CCC4CC(=O)\C=C(C)/[C@]4(C)[C@H]3CC[C@]12C (stereo not given in full) [METENOLONE ENANTHATE],> 46 µM
15,CN(C)CCN(Cc1cccs1)c1ccccn1.Cl [METHAPYRILENE HYDROCHLORIDE],> 46 µM
16,C=C1Nc2ccccc2C(=O)N1c1ccccc1C [METHAQUALONE],> 46 µM
17,CCC1(CC)C(=O)NC(=O)N(C)C1=O [METHARBITAL],> 46 µM
18,COc1cccc(OC)c1C(=O)NC1C(=O)N2C1SC(C)(C)C2C(=O)[O-].[Na+] (stereo not given) [METHICILLIN SODIUM],> 46 µM
19,CSCCC(N)C(=O)O (stereo not given) [METHIONINE],> 46 µM
20,CSc1ccc2c(c1)C(N1CCN(C)CC1)Cc1ccccc1S2 (stereo not given) [METHIOTHEPIN],> 46 µM
21,COc1ccc(OC)c(C(O)C(C)N)c1.Cl (stereo not given) [METHOXAMINE HYDROCHLORIDE],> 46 µM
22,COc1ccc(CCN(C)CCCC(C#N)(c2cc(OC)c(OC)c(OC)c2)C(C)C)cc1OC (stereo not given) [METHOXY VERAPAMIL],> 46 µM
23,COC(F)(F)C(Cl)Cl [METHOXYFLURANE],> 46 µM
24,CN1C(CCl)Nc2cc(Cl)c([S+](N)(=O)[O-])cc2[S+]1(=O)[O-] (stereo not given) [METHYCLOTHIAZIDE],> 46 µM
25,COC(=O)CCC(=O)CN [METHYL AMINOLEVULINATE HYDROCHLORIDE],> 46 µM

row,SMILES,IC50 of cell viability
1,COC(=O)c1cccnc1 [METHYL NICOTINATE],> 46 µM
2,C=CCCCCCCCCC(=O)OC [METHYL UNDECENOATE],> 46 µM
3,CC[N+](C)(CC)CCOC(=O)C(O)(c1ccccc1)c1ccccc1 [METHYLBENACTYZIUM BROMIDE],> 46 µM
4,Cn1sc(Cl)cc1=O [METHYLCHLOROISOTHIAZOLINONE],> 46 µM
5,CC[C@@H](CO)NC(=O)[C@H]/1CN(C)[C@@H]2CC3=C[NH]C4=C3C(=CC=C4)\C2=C1 [METHYLERGOMETRINE],> 46 µM
6,C[S+](C)CC[C@H](N)C(=O)O [METHYLMETHIONINE SULFONIUM CHLORIDE],> 46 µM
7,C[C@]1(O)CC[C@H]2[C@@H]3CCC/4=C/C(=O)CC[C@]4(C)[C@H]3CC[C@]12C [METHYLTESTOSTERONE],> 46 µM
8,C\C1=C\C(=O)NC(=S)N1 [METHYLTHIOURACIL],> 46 µM
9,CC[C@@H](CO)NC(=O)[C@H]\1CN(C)[C@@H]2CC3=C[N](C)C4=CC=CC(=C34)/C2=C1 [METHYSERGIDE],> 46 µM
10,CO[C@H]1[C@@H](O)CC(O[C@@H]1C)OC2[C@@H](O)CC(O[C@@H]2C)OC3[C@@H](O)C[C@@H](O[C@@H]3C)OC4CC[C@@]5(C)C(CCC6C5CC(O)[C@]7(C)[C@@H](CCC67O)C/8=C/C(=O)OC8)C4 (stereo not given in full) [METILDIGOXIN],> 46 µM
11,CN1C(=O)/C(=N\NC(N)=S)c2ccccc21 [METISAZONUM],> 46 µM
12,C[N+](C)(C)CCOC(=O)C(O)(c1ccccc1)c1ccccc1 [METOCINII IODIDUM],> 46 µM
13,CCN(CC)CCNC(=O)c1cc(Cl)c(N)cc1OC [METOCLOPRAMIDE],> 46 µM
14,COc1ccc2cc1Oc1cc3c(cc1OC)CC[N+](C)(C)C3Cc1ccc(cc1)Oc1c(OC)c(OC)cc3c1C(C2)[N+](C)(C)CC3 (stereo not given) [METOCURINE IODIDE],> 46 µM
15,COC(=O)c1cncn1C(C)c1ccccc1 (stereo not given) [METOMIDATE HYDROCHLORIDE],> 46 µM
16,COC(=O)C1C2CC3c4[nH]c5cc(OC)ccc5c4CCN3CC2CC(OC)C1OC (stereo not given) [METOSERPATE HYDROCHLORIDE],> 46 µM
17,Cc1ncc([N+](=O)[O-])n1CCO [METRONIDAZOLE],> 46 µM
18,CC1(C)S[C@@H]2[C@H](NC(=O)[C@H](NC(=O)N3CCN([S+](C)(=O)[O-])C3=O)c3ccccc3)C(=O)N2[C@H]1C(=O)O [MEZLOCILLIN SODIUM MONOHYDRATE],> 46 µM
19,CC[N+](CC)(CC)CCOc1ccc(/C=C/c2ccccc2)cc1 [MG 624],> 46 µM
20,CN1CCN2c3ccccc3Cc3ccccc3C2C1 (stereo not given) [MIANSERIN],> 46 µM
21,O=C(O)[C@H]1CN(C/C=C/P(=O)(O)O)CCN1 [MIDAFOTELUM],> 46 µM
22,CC1=NC=C2C\N=C(\C3=CC=CC=C3F)C4=CC(=CC=C4[N]12)Cl [MIDAZOLAM HYDROCHLORIDE],> 46 µM
23,COP(=O)(OC)OC(c1ccc(Cl)cc1)P(=O)(OC)OC (stereo not given) [MIFOBATUM],> 46 µM
24,OCCN1CC(O)C(O)C(O)C1CO (stereo not given) [MIGLITOL],> 46 µM
25,CCCCN1CC(O)C(O)C(O)C1CO (stereo not given) [MIGLUSTAT],> 46 µM
